Results reported in PubChem BioAssay (NCI).
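Where inhibition never reached the appropriate level, the endpoint shown equals the highest concentration tested. Otherwise, values were interpolated linearly from a five-concentration, 48-hour dose response in 96-well plates. TGI: total growth inhibition.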 Where a SMILES comes first, the peptide text is derived from it. The star is where a group is joined. Boc = CC(C)(C)OC(=O)*

Legend:
Assay in all cases: NCI tumour cell line growth inhibition, 48 h
[1] = test system: SW-620 colon
[2] = test system: NCI-H23 lung
[3] = test system: SF-295 CNS
[4] = test system: CAKI-1 renal
[5] = test system: KM12 colon
[6] = test system: HOP-92 NSCLC
[7] = test system: UO-31 renal
[8] = test system: SF-268 CNS
[9] = test system: HOP-18 NSCLC
[10] = test system: HL-60(TB) leukemia
[11] = test system: UACC-62 melanoma
[12] = test system: OVCAR-8 ovarian
[13] = test system: OVCAR-5 ovarian
[14] = test system: SK-OV-3 ovarian
[15] = test system: OVCAR-4 ovarian
[16] = test system: DMS 273 small cell lung
[17] = test system: DLD-1 colon
[18] = test system: SK-MEL-28 melanoma
[19] = test system: SK-MEL-5 melanoma
[20] = test system: LXFL 529 NSCLC
[21] = test system: CCRF-CEM leukemia
[22] = test system: COLO 205 colon
[23] = test system: SF-539 CNS
[24] = test system: NCI-H460 lung
[25] = test system: HCT-15 colon
[26] = test system: MOLT-4 leukemia
[27] = test system: RPMI-8226 leukemia
[28] = test system: MALME-3M melanoma
[29] = test system: NCI-H226 lung
[30] = test system: U251 CNS
[31] = test system: A498 renal
[32] = test system: RXF 393 renal
[33] = test system: K-562 leukemia
[34] = test system: HOP-62 NSCLC
[35] = test system: 786-0 renal
[36] = test system: ACHN renal
[37] = test system: M19-MEL melanoma
[38] = test system: SNB-75 CNS
[39] = test system: TK-10 renal
[40] = test system: UACC-257 melanoma
[41] = test system: M14 melanoma
[42] = test system: SN12C renal
[43] = test system: HCT-116 colon
[44] = test system: A549 NSCLC
[45] = test system: HT29 colon
[46] = test system: NCI-H522 lung
[47] = test system: LOX IMVI melanoma
[48] = test system: SK-MEL-2 melanoma
[49] = test system: IGROV1 ovarian
[50] = test system: SR leukemia
[51] = test system: SNB-19 CNS
[52] = test system: KM20L2 colon
[53] = test system: OVCAR-3 ovarian
[54] = test system: SNB-78 CNS
[55] = test system: EKVX NSCLC
[56] = test system: DMS 114 small cell lung
[57] = test system: HCC-2998 colon
[58] = test system: RXF-631 renal
[59] = test system: XF 498 CNS

Measured: TGI

COc1ccc(C2S/C(=C\c3cccc(OC)c3)C(=O)N2NC(=O)Cc2ccccc2)cc1 (stereo not drawn)
not listed: [51] | [52] | [53] | [54] | [55] | [56] | [57] | [58] | [59]
> 100 µM: all other assays above

N=S(=O)(c1ccccc1)c1ccccc1
not listed: [6] | [16] | [25] | [32] | [35] | [39] | [45] | [58] | [59]
> 100 µM: all other assays above

Cc1cc2c(c3nocc13)C(=O)c1ccccc1C2=O
not listed: [29] | [31] | [43] | [50] | [54] | [59]
> 100 µM: all other assays above

COc1cc(O)c(C(=O)CC(C)=O)c(OC)c1
not listed: [6] | [25] | [31] | [37] | [50] | [58]
> 100 µM: all other assays above

CSCCC(NC(=O)C(CC(C)C)NC(=O)C1CCCN1C(=O)C(Cc1ccccc1)NC(=O)C(Cc1ccccc1)NC(=O)C(CCC(=O)O)NC(=O)OC(C)(C)C)C(N)=O (stereo not drawn) (Boc-EFFPLM-NH2; configuration not given here)
not listed: [1] | [3] | [5] | [9] | [12] | [13] | [19] | [25] | [30] | [32] | [36] | [39] | [40] | [44] | [45] | [51] | [52] | [53] | [55]
> 100 µM: all other assays above

Cc1c(OCCCOc2ccc3c(=O)cc(-c4ccccc4)oc3c2C)ccc2c(=O)cc(-c3ccccc3)oc12
not listed: [15] | [22] | [29] | [36] | [38] | [42] | [57] | [58]
> 100 µM: all other assays above

Nc1ncnc2c1ncn2CCCC(c1ccccc1)P(=O)(O)O (stereo not drawn)
30.7 µM: [4]
not listed: [6] | [9] | [15] | [21] | [26] | [27] | [33] | [34] | [41] | [58]
> 100 µM: all other assays above

O=C1OC(c2ccccc2)(c2ccccc2)c2ccc3ccc(F)cc3c21
not listed: [9] | [54]
> 100 µM: all other assays above
